Patent US6084081A, “Lewis X derivatives” (Daikin Industries, Ltd., priority 1996, dated 2000)

Experiments:
α-fucosidase = biological target: T1, α-fucosidase (Bos taurus, UniProt Q2KIM0); assay: Metabolic stability test: substrate decomposition reaction by α-fucosidase (remaining substrate by TLC); type: in vitro ADME
T1 construct: purchased Wako Pure Chemical Industries, Ltd
T1 sequence (Q2KIM0 23-468): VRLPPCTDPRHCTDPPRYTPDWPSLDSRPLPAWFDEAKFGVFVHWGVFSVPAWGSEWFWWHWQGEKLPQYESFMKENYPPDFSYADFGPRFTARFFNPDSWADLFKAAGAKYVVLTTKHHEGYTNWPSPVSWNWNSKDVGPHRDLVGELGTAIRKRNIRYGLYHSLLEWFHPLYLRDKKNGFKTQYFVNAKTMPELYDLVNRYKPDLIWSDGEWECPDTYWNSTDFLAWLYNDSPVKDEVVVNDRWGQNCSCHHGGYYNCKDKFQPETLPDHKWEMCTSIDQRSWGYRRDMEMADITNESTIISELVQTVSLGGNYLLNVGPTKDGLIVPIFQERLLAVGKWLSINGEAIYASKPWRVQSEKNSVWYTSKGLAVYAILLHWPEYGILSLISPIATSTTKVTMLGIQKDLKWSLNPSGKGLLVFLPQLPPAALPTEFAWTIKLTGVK
Protocol: The TLC plate was developed until the reaction solution front moved 2 cm (developing solvent; n-butanol:acetic acid:water=8:5:4). After immersion in phosphomolybdic acid.phosphoric acid.sulfonic acid mixed aqueous solution, the plate was heated to develop colors and the amount of the remaining substrate was measured.

P-selectin = biological target: T2, P-selectin (Homo sapiens, UniProt P16109); settings: relative to sugar chain (3); cited from earlier work
T2 sequence (P16109 42-830): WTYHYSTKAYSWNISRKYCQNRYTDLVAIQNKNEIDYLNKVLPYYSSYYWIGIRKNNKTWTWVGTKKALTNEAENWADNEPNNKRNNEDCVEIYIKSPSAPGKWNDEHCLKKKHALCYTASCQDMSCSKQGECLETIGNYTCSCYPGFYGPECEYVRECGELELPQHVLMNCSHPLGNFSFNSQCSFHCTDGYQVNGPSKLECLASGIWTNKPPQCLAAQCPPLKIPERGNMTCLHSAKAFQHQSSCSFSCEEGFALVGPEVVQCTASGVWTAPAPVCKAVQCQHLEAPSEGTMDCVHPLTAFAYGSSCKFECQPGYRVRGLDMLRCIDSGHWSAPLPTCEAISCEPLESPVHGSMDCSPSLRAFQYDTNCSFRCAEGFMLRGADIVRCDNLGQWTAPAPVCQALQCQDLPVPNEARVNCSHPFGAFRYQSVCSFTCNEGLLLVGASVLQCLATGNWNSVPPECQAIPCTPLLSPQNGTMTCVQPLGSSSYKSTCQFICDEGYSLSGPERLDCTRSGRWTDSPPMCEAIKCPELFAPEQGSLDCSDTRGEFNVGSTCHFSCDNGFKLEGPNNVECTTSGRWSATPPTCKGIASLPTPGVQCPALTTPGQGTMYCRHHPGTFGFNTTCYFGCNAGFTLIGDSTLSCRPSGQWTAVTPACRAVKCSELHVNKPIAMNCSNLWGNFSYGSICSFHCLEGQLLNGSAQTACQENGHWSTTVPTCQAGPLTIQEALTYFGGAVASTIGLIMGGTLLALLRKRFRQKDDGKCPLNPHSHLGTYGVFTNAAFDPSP

[1] = tested on: acute pulmonary inflammation induced using a cobra venom factor; settings: rats, Mulligan et al., Nature 364, 149 (1993); cited from earlier work

Compound: CCCCCCCCCCCCCC=CC(O)C(COC1OC(CO)C(OC2OC(CO)C(O)C(OC3OC(CF)C(OC4OC(CO)C(O)C(OC5(C(=O)O)CC(O)C(NC(C)=O)C(C(O)C(O)CO)O5)C4O)C(OC4OC(C)C(O)C(O)C4O)C3NC(C)=O)C2O)C(O)C1O)NC(=O)CCCCCCCCCCCCCCCCC [Compound 24, O-(5-Acetamide-3,5-dideoxy-D-glycero-α-D-galacto-2-nonulopyranosylonic acid)-(2→3)-O-β-D-glucopyranosyl-(1→4)-O-[α-L-fucopyranosyl-(1→3)]-O-(2-acetamide-2,6-dideoxy-6-fluoro-β-D-galactopyranosyl)-(1→3)-O-β-D-galactopyranosyl)-(1→4)-β-D-glucopyranosyl-(1→1)(2S, 3R, 4E)-2-octadecaneamide-4-octadecene-1,3-diol]
- stability against decomposition by α-fucosidase (in words) (α-fucosidase; in the presence of α-fucosidase): more strongly resists the decomposition by α-fucosidase than a natural Ganglioside
- Remaining Syalyl Lewis X (%) (α-fucosidase; α-fucosidase, time 0 min): 100%

Compound: 1-deoxy sialyl Lewis X [sugar chain (4)]
- inhibitory activity against P-selectin, times as potent as sugar chain (3) (P-selectin): about 20 times

Compound: sialyl Lewis X sugar chain [sialyl Lewis X sugar chain (3)]
- effect on acute pulmonary inflammation (in words) [1]: ameliorates acute pulmonary inflammation
